Measured values taken from the SangsterLogP compilation.

Experiment: method code SF-AS, from DOI: 10.1002/jps.2600830428, PMID: 8046619
Settings: pH 7.4

Row | Compound | logD
1 | O=c1nc(N=CN2CCOCC2)ccn1[C@@H]1O[C@H](CO)[C@@H](O)[C@@H]1O | -1.66
2 | O=c1nc(/N=C/N2CCOCC2)ccn1[C@H]1C[C@H](O)[C@@H](CO)O1 | -1.54
3 | O=c1nc(N=CN2CCCC2)ccn1[C@@H]1O[C@H](CO)[C@@H](O)[C@@H]1O | -1.15
